A value given as a limit tells only on which side of the number the result lay.

The target in experiment [1] is T1, catalytic domain (JH1, amino acids 826-1132) of human JAK2 (Homo sapiens, UniProt O60674).
T1 construct: catalytic domain (JH1, amino acids 826-1132) of human JAK2; FLAG (N); biotin (biotinylated); purchased Carna Biosciences 08-445-20N; host or cells: baculovirus expression system
Put plainly: JAK2 LanthaScreen JH1 Binding Assay. The conditions noted are these: JAK2 JH1 1.5 nM, 50 nM tracer, 2 hours at 25° C.; read-out: JH1 BIND. As to the method: Example A. JAK2 LanthaScreen JH1 Binding Assay
JAK2 JH1 binding assay utilizes catalytic domain (JH1, amino acids 826-1132) of human JAK2 expressed as N-terminal FLAG-tagged, biotinylated protein in a baculovirus expression system (Carna Biosciences, Product #08-445-20N). The assay was conducted in black 384-well polystyrene plates in a final reaction volume of 20 μL. JAK2 JH1 (1.5 nM) was incubated with compounds (100 nL serially diluted in DMSO) in the presence of 50 nM fluorescent JAK2-JH1 tracer and 0.5 nM Streptavidin-Tb cryptate (Cisbio Part #610SATLB) in assay buffer (50 mM Tris, pH=7.5, 10 mM MgCl2, 0.01% Brij-35, 0.1% BSA, 1 mM EGTA, 5% Glycerol and 5 mM DTT). Non-specific binding was accessed in the presence of 2 mM ATP. After incubation for 2 hours at 25° C., LanthaScreen signals were read on a PHERAstar FS plate reader (BMG LABTECH). Data was analyzed with IDBS XLfit and GraphPad Prism 5.0 software using a four parameter dose response curve to determine IC50 for each compound.

Experiment [2] deals with T2, pseudo-kinase domain (JH2, amino-acids 536-812) of human Wild Type JAK2 (Homo sapiens, UniProt O60674, F794H/W659A/W777A).
T2 construct: pseudo-kinase domain (JH2, amino-acids 536-812 with 3 surface mutations W659A, W777A, F794H); His (C); purchased BPS Bioscience 79463; host or cells: baculovirus expression system
T2 sequence (O60674 536-812 W659A/W777A/F794H): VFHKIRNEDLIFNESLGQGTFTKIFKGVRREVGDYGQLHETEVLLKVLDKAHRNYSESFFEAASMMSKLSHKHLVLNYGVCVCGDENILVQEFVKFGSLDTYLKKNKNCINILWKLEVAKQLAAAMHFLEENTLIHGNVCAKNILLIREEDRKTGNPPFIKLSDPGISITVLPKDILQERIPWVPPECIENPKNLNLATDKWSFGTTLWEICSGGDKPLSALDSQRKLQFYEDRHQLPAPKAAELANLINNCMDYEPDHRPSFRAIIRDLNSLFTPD
Description: JAK2 LanthaScreen JH2-WT Binding Assay. The conditions noted are these: JAK2 JH2-WT 0.145 nM, 50 nM tracer, 1 hour at 25° C.; read-out: JH2 BIND WT. As to the method:
Example B. JAK2 LanthaScreen JH2-WT Binding Assay
JAK2 JH2-WT binding assay utilizes pseudo-kinase domain (JH2, amino-acids 536-812 with 3 surface mutations W659A, W777A, F794H) of human Wild Type JAK2 expressed as C-terminal His-Avi-tagged, biotinylated protein in a baculovirus expression system (BPS Bioscience, Catalog #79463). The assay was conducted in black 384-well polystyrene plates in a final reaction volume of 20 μL. JAK2 JH2-WT (0.145 nM) was incubated with compounds (100 nL serially diluted in DMSO) in the presence of 50 nM Fluorescent JAK2-JH2 Tracer (MedChem Express Catalog #HY-102055) and 0.25 nM Streptavidin-Tb cryptate (Cisbio Part #610SATLB) in assay buffer (50 mM Tris, pH=7.5, 10 mM MgCl2, 0.01% Brij-35, 0.1% BSA, 1 mM EGTA, 5% Glycerol and 5 mM DTT). Non-specific binding was accessed in the presence of 2 mM ATP. After incubation for 1 hour at 25° C., LanthaScreen signals were read on a PHERAstar FS plate reader (BMG LABTECH). Data was analyzed with IDBS XLfit and GraphPad Prism 5.0 software using a four parameter dose response curve to determine IC50 for each compound.
A general note: TR-FRET usually uses a lanthanide donor and a delayed reading to cut background.

In experiment [3] the target is T3, pseudo-kinase domain (JH2, amino-acids 536-812) of human V617F mutant JAK2 (Homo sapiens, UniProt O60674, F794H/V617F/W659A/W777A).
T3 construct: pseudo-kinase domain (JH2, amino-acids 536-812 with 3 surface mutations W659A, W777A, F794H); His (C); purchased BPS Bioscience 79498; host or cells: baculovirus expression system
T3 sequence (O60674 536-812 V617F/W659A/W777A/F794H): as the sequence (O60674 536-812 W659A/W777A/F794H) above, with V82F counted along it
Description: JAK2 LanthaScreen JH2-V617F Binding Assay. The conditions noted are these: JAK2 JH2-V617F 0.26 nM, 50 nM tracer, 1 hour at 25° C.; read-out: JH2 BIND V617F. In outline: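 Serially diluted compounds are mixed with 0.26 nM protein, 50 nM fluorescent JAK2-JH2 tracer and 0.25 nM terbium-labelled streptavidin, then incubated 1 h at 25° C. LanthaScreen signal is read, and IC50 is fitted.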

For experiment [4], the target named is catalytic domain (JH1, amino acids 808-1132) of human JAK2 (Homo sapiens, UniProt O60674). Description: JAK2 HTRF Enzyme Activity Assay. It is filed as biochemical. The conditions noted are these: ATP 30 µM, 60 minutes at 25° C.; read-out: V617F ENZ 30 UM.
Sequence of catalytic domain (JH1, amino acids 808-1132) of human JAK2 (O60674 808-1132 limits assumed): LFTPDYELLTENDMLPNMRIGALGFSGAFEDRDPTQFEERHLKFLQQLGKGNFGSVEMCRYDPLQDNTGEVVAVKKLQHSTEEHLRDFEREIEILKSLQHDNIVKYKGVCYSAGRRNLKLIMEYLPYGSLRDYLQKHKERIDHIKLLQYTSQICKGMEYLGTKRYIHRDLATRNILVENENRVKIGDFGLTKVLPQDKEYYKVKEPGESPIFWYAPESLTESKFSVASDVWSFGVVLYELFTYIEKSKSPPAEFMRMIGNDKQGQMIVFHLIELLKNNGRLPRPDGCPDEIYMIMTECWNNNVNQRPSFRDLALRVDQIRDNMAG

T1 sequence (O60674 826-1132): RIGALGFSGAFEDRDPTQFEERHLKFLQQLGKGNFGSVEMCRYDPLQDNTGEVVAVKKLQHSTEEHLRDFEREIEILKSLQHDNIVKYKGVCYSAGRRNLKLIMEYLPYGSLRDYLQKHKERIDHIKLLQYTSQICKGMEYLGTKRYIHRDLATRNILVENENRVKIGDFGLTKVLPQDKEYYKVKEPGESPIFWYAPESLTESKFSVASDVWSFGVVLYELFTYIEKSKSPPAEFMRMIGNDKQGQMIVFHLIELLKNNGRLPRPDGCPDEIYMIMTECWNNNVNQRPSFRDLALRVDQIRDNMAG

`COC(=O)Nc1cc(Nc2cc3c(cn2)n(C)c(=O)n3[C@H]2C[C@](C)(NC(=O)OC)C2)cc(-c2cnn(C)c2)c1` [Example 29, Methyl (3-((1-((1r,3r)-3-((methoxycarbonyl)amino)-3-methylcyclobutyl)-3-methyl-2-oxo-2,3-dihydro-1H-imidazo[4,5-c]pyridin-6-yl)amino)-5-(1-methyl-1H-pyrazol-4-yl)phenyl)carbamate]: the IC50 was over 1000 nM in experiment [1], 100 to 500 nM in experiment [2], 100 to 500 nM in experiment [3] and over 1000 nM in experiment [4].

For the compound `COC(=O)N[C@@H]1CC[C@@H](n2c(=O)n(C)c3cnc(Nc4cc(NC(=O)C5(F)CCOCC5)cc(-c5cccc(C#N)c5)c4)cc32)C1` [Example 2, Methyl ((1R,3R)-3-(6-((3′-cyano-5-(4-fluorotetrahydro-2H-pyran-4-carboxamido)-[1,1′-biphenyl]-3-yl)amino)-3-methyl-2-oxo-2,3-dihydro-1H-imidazo[4,5-c]pyridin-1-yl)cyclopentyl)carbamate], the IC50 is over 1000 nM in experiment [1], at most 10 nM in experiment [2], at most 10 nM in experiment [3] and over 1000 nM in experiment [4].

On to `[2H]C([2H])([2H])n1c(=O)n([C@@H]2CC[C@@H](NC(=O)OC)C2)c2cc(Nc3cc(C(C)(C)O)cc(-c4ncc(C(O)(C(F)(F)F)C(F)(F)F)s4)n3)ncc21` [Example 145, Methyl ((1R,3R)-3-(6-((6-(5-(1,1,1,3,3,3-hexafluoro-2-hydroxypropan-2-yl)thiazol-2-yl)-4-(2-hydroxypropan-2-yl)pyridin-2-yl)amino)-3-(methyl-d3)-2-oxo-2,3-dihydro-1H-imidazo[4,5-c]pyridin-1-yl)cyclopentyl)carbamate], for which the IC50 was over 1000 nM in experiment [1], at most 10 nM in experiment [2], at most 10 nM in experiment [3] and over 1000 nM in experiment [4].

In the case of `[2H]C([2H])([2H])n1c(=O)n([C@]2([2H])CC[C@@H](NC(=O)OC)C2)c2cc(Nc3cc(C(C)(C)O)cc(-c4ncc(C(F)(F)F)s4)n3)ncc21` [Example 156, Methyl ((1R,3R)-3-(6-((4-(2-hydroxypropan-2-yl)-6-(5-(trifluoromethyl)thiazol-2-yl)pyridin-2-yl)amino)-3-(methyl-d3)-2-oxo-2,3-dihydro-1H-imidazo[4,5-c]pyridin-1-yl)cyclopentyl-3-d)carbamate], the IC50 in experiment [1] is over 1000 nM; in experiment [2], at most 10 nM; in experiment [3], at most 10 nM; in experiment [4], over 1000 nM.

As to `COC(=O)Nc1cc(Nc2cc3c(cn2)n(C)c(=O)n3C2CC3(C2)CN(C(=O)OC)C3)cc(-c2cnn(C)c2)c1` [Example 27, Methyl 6-(6-((3-((methoxycarbonyl)amino)-5-(1-methyl-1H-pyrazol-4-yl)phenyl)amino)-3-methyl-2-oxo-2,3-dihydro-1H-imidazo[4,5-c]pyridin-1-yl)-2-azaspiro[3.3]heptane-2-carboxylate], the IC50 is over 1000 nM in experiment [1], 100 to 500 nM in experiment [2], 100 to 500 nM in experiment [3] and over 1000 nM in experiment [4].

On to `[2H]C([2H])([2H])n1c(=O)n([C@@H]2CC[C@@](C)(NC(=O)C3CC3)C2)c2cc(Nc3cc(C(=O)N4CCOCC4)c4cccc(C(F)(F)F)c4n3)ncc21` [Example 116, N-((1R,3R)-1-methyl-3-(3-(methyl-d3)-6-((4-(morpholine-4-carbonyl)-8-(trifluoromethyl)quinolin-2-yl)amino)-2-oxo-2,3-dihydro-1H-imidazo[4,5-c]pyridin-1-yl)cyclopentyl)cyclopropanecarboxamide], for which the IC50 in experiment [1] was 100 to 500 nM; in experiment [2] it was at most 10 nM; in experiment [3], at most 10 nM; in experiment [4], 100 to 500 nM.

For `COC(=O)N[C@@H]1CC[C@@H](n2c(=O)n(C)c3cnc(Nc4cc(NC(=O)C5CC5)cc(-c5cnn(C)c5)c4)cc32)C1` [Example 57, Methyl ((1R,3R)-3-(6-((3-(cyclopropanecarboxamido)-5-(1-methyl-1H-pyrazol-4-yl)phenyl)amino)-3-methyl-2-oxo-2,3-dihydro-1H-imidazo[4,5-c]pyridin-1-yl)cyclopentyl)carbamate], the IC50 in experiment [1] is over 1000 nM; in experiment [2] it was at most 10 nM; in experiment [3] it was at most 10 nM; in experiment [4] it was over 1000 nM.

For the compound `[2H]C([2H])([2H])n1c(=O)n([C@@H]2CC[C@@H](NC(=O)OC)C2)c2cc(Nc3cc(COC4CCC4)cc(-c4ccc5c(c4)OCCO5)n3)ncc21` [Example 63, Methyl ((1R,3R)-3-(6-((4-(cyclobutoxymethyl)-6-(2,3-dihydrobenzo[b][1,4]dioxin-6-yl)pyridin-2-yl)amino)-3-(methyl-d3)-2-oxo-2,3-dihydro-1H-imidazo[4,5-c]pyridin-1-yl)cyclopentyl)carbamate], the IC50 was over 1000 nM in experiment [1], at most 10 nM in experiment [2], 10 to 100 nM in experiment [3] and over 1000 nM in experiment [4].

On to `[2H]C([2H])([2H])n1c(=O)n([C@@H]2CC[C@@H](NC(=O)OC)C2)c2cc(Nc3cc(C)cc(-c4ncc(C(C)(C)O)s4)n3)ncc21` [Example 99, Methyl ((1R,3R)-3-(6-((6-(5-(2-hydroxypropan-2-yl)thiazol-2-yl)-4-methylpyridin-2-yl)amino)-3-(methyl-d3)-2-oxo-2,3-dihydro-1H-imidazo[4,5-c]pyridin-1-yl)cyclopentyl)carbamate], for which the IC50 is over 1000 nM in experiment [1], at most 10 nM in experiment [2], at most 10 nM in experiment [3] and over 1000 nM in experiment [4].

With `COCCOC(=O)N[C@@H]1CC[C@@H](n2c(=O)n(C)c3cnc(Nc4cc(NC(=O)OC5CCC5)cc(-c5cnn(C)c5)c4)cc32)C1` [Example 43, 2-Methoxyethyl ((1R,3R)-3-(6-((3-((cyclobutoxycarbonyl)amino)-5-(1-methyl-1H-pyrazol-4-yl)phenyl)amino)-3-methyl-2-oxo-2,3-dihydro-1H-imidazo[4,5-c]pyridin-1-yl)cyclopentyl)carbamate], the IC50 in experiment [1] is over 1000 nM; in experiment [2] it was 10 to 100 nM; in experiment [3], 10 to 100 nM; in experiment [4] it was over 1000 nM.

Take `COC(=O)N[C@@H]1CC[C@@H](n2c(=O)n(C)c3cnc(Nc4ccc(F)c(-c5ccc(CC#N)cc5)n4)cc32)C1` [Example 71, Methyl ((1R,3R)-3-(6-((6-(4-(cyanomethyl)phenyl)-5-fluoropyridin-2-yl)amino)-3-methyl-2-oxo-2,3-dihydro-1H-imidazo[4,5-c]pyridin-1-yl)cyclopentyl)carbamate]: the IC50 in experiment [1] was over 1000 nM; in experiment [2] it was at most 10 nM; in experiment [3], at most 10 nM; in experiment [4] it was over 1000 nM.

In the case of `[2H]C([2H])([2H])n1c(=O)n([C@@H]2CC[C@@H](NC(=O)OC)C2)c2cc(Nc3ccc4cc(-c5cnn(C)c5)cc(C(F)(F)F)c4n3)ncc21` [Example 20, Methyl ((1R,3R)-3-(3-(methyl-d3)-6-((6-(1-methyl-1H-pyrazol-4-yl)-8-(trifluoromethyl)quinolin-2-yl)amino)-2-oxo-2,3-dihydro-1H-imidazo[4,5-c]pyridin-1-yl)cyclopentyl)carbamate], the IC50 is over 1000 nM in experiment [1], at most 10 nM in experiment [2], at most 10 nM in experiment [3] and over 1000 nM in experiment [4].

For the origin of these results see US20240317744A1, “Bicyclic Ureas As Kinase Inhibitors” (Incyte Corporation, priority 2023, published 2024).
